Results taken from ChEMBL document CHEMBL1123474, “Neuroleptics from the 4a,9b-cis- and 4a,9b-trans-2,3,4,4a,5,9b-hexahydro-1H-pyrido[4,3-b]indole series. 2” (J Med Chem, 1986).

Legend:
Rattus norvegicus [1] = assay: Inhibition of d-amphetamine induced stereotypy in rats; i.p. treatment 5 hr before amphetamine.; assay type: functional
Rattus norvegicus [2] = assay: Inhibition of d-amphetamine induced stereotypy in rats; i.p. treatment 1 hr before amphetamine.; assay type: functional
Rattus norvegicus [3] = assay: Inhibition of d-amphetamine induced stereotypy in rats; i.p. treatment 24 hr before amphetamine.; assay type: functional
Rattus norvegicus [4] = species on record: Rattus norvegicus; assay: animal or person; details: ip
Rattus norvegicus [5] = species on record: Rattus norvegicus; assay: animal or person; details: ip; remark: listed apart in the source
Rattus norvegicus [6] = species on record: Rattus norvegicus; assay: animal or person; details: ip; remark: listed apart in the source
[7] = Rattus norvegicus, ip, read-out: ED50

Compound | ED50 (Rattus norvegicus [1]; [7]) [mg/kg] | ED50 (Rattus norvegicus [2]; [7]) [mg/kg] | ED50 (Rattus norvegicus [3]; [7]) [mg/kg] | further results
Fc1ccc(N2c3ccc(F)cc3[C@@H]3CNCC[C@H]32)cc1 | > 3.2 | > 3.2 | – | –
c1ccc(N2c3ccccc3[C@@H]3CNCC[C@@H]32)cc1 | > 32 | > 32 | – | –
OC(CCCN1CC[C@@H]2[C@@H](C1)c1cc(F)ccc1N2c1ccc(F)cc1)c1ccc(F)cc1 (some centres not stated) | 0.03 | 0.41 | 0.03 | –
CN1CC[C@@H]2[C@@H](C1)c1cc(F)ccc1N2c1ccc(F)cc1 | 0.23 | 0.14 | > 3.2 | –
OC(CCCN1CC[C@H]2[C@@H](C1)c1ccccc1N2c1ccccc1)c1ccc(F)cc1 (some centres not stated) | > 32 | > 32 | – | –
OC(CCCN1CC[C@@H]2[C@@H](C1)c1cc(F)ccc1N2c1ccccc1)c1ccc(F)cc1 (stereo in doubt; 24) | – | – | – | ED50 (Rattus norvegicus [3]): 0.11 mg/kg; ED50 (Rattus norvegicus [1]): 0.08 mg/kg; ED50 (Rattus norvegicus [2]): 0.23 mg/kg
COc1ccc(/C=C/CCN2CC[C@@H]3[C@@H](C2)c2cc(F)ccc2N3c2ccc(F)cc2)cc1 | ~0.32 | > 3.2 | ~0.32 | –
Fc1ccc(/C=C/CCN2CC[C@@H]3[C@@H](C2)c2cc(F)ccc2N3c2ccc(F)cc2)cc1 | 0.57 | > 1 | 0.57 | –
O=C(CCCN1CCC(O)(c2ccc(Cl)cc2)CC1)c1ccc(F)cc1 [HALOPERIDOL] | – | – | – | ED50 (Rattus norvegicus [4]): > 3.2 mg/kg; ED50 (Rattus norvegicus [5]): 0.1 mg/kg; ED50 (Rattus norvegicus [6]): 0.1 mg/kg
OCCCCN1CC[C@@H]2[C@@H](C1)c1cc(F)ccc1N2c1ccc(F)cc1 | 0.009 | 0.03 | ~1 | –
OC(CCCN1CC[C@@H]2[C@@H](C1)c1cc(F)ccc1N2c1ccccc1)c1ccc(F)cc1 (stereo in doubt; 25) | – | – | – | ED50 (Rattus norvegicus [3]): 0.032 mg/kg; ED50 (Rattus norvegicus [1]): ~0.032 mg/kg; ED50 (Rattus norvegicus [2]): 0.1 mg/kg
O=C(CCCN1CC[C@@H]2[C@@H](C1)c1cc(F)ccc1N2c1ccc(F)cc1)c1ccc(F)cc1 | 0.1 | > 1 | 0.03 | –
c1ccc(CN2CC[C@H]3[C@@H](C2)c2ccccc2N3c2ccccc2)cc1 | > 32 | > 32 | – | –
OC(CCCN1CC[C@H]2[C@@H](C1)c1cc(F)ccc1N2c1ccc(F)cc1)c1ccc(F)cc1 (some centres not stated) | 1.1 | 22 | 9.1 | –
CN1CC[C@H]2[C@@H](C1)c1ccccc1N2c1ccccc1 | > 32 | > 32 | – | –
COc1ccc(C(O)CCCN2CC[C@@H]3[C@@H](C2)c2cc(F)ccc2N3c2ccc(F)cc2)cc1 (some centres not stated) | 0.01 | 0.36 | 0.1 | –
CCN1CC[C@@H]2[C@@H](C1)c1cc(F)ccc1N2c1ccc(F)cc1 | 0.18 | 0.14 | > 10 | –
OC(CCCN1CC[C@@H]2[C@@H](C1)c1cc(F)ccc1N2c1ccc(F)cc1)c1ccccc1 (some centres not stated) | – | 0.18 | 0.18 | ED50 (Rattus norvegicus [1]; ip): 0.18 mg/kg
CN1CC[C@@H]2Nc3ccccc3[C@@H]2C1 [CARBIDINE] | > 32 | > 32 | – | –
OC(CCCN1CC[C@@H]2[C@@H](C1)c1ccccc1N2c1ccc(F)cc1)c1ccc(F)cc1 (some centres not stated) | 0.032 | ~0.32 | 0.032 | –
OC(CCCN1CCc2c(c3cc(F)ccc3n2-c2ccc(F)cc2)C1)c1ccc(F)cc1 (configuration not stated) [FLUTROLINE] | 0.1 | 0.1 | 0.32 | –
